The source of these data is PubChem BioAssay (NCI).

Assay in all cases: NCI tumour cell line growth inhibition, 48 h
Assay [1] deals with NCI-H23 lung.
Assay [2] relates to DU-145 prostate.
Assay [3] relates to SR leukemia.
The subject of assay [4] is SN12C renal.
In assay [5] the test system is BT-549 breast.
Assay [6] has as its system SNB-19 CNS.
Assay [7] concerns MDA-N.
Assay [8] has as its system HL-60(TB) leukemia.
Assay [9] has as its system T-47D breast.

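Following 48 hours of exposure in 96-well plates, responses at five concentrations were used to interpolate endpoints linearly. TGI marks complete inhibition of growth.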

Regarding `O=C(O)CNC(=O)c1c2ccccc2nc2ccccc12`, the TGI in assay [1], in [2], in [3], in assay [4], in assay [5] and in [6] was > 100 µM each time.
Turning to `CC(C)=C/C=C1/CS(=O)(=O)C=C1C`, the TGI in [7], in [8], in assay [9], in assay [1], in [2] and in assay [4] was > 100 µM throughout. In assay [6], the TGI was > 100 µM.
With `COc1ccc2c(c1)CCN1CCc3cc(OC)c(OC)cc3CC21` (stereo not given), the TGI in assay [9] was > 100 µM; in assay [1], > 100 µM; in assay [2], > 100 µM; in [3], > 100 µM; in assay [4] it was > 100 µM; in [5] it was 55.6 µM. Besides, the TGI in assay [6] was > 100 µM.
With `Brc1ccc(-c2cn3ccncc3n2)cc1`, the TGI in assay [7], in assay [9], in [1], in assay [2], in [3] and in [4] was > 100 µM each time. Further, the TGI in [5] and in [6] was > 100 µM in each case.
Take `COc1ccc2oc(=N)c(C(=O)Nc3ccccn3)cc2c1`: the TGI in assay [8], in assay [9], in [1], in assay [2], in [3] and in [4] was > 100 µM in each case. Also, the TGI in [5] and in [6] was > 100 µM throughout.
In the case of `Cc1ccc(N=Nc2c(O)c(C(=O)Nc3ccccc3)cc3ccccc23)c([N+](=O)[O-])c1`, the TGI in assay [7], in assay [9], in assay [1], in assay [2], in assay [4] and in assay [5] was > 100 µM in each case. The TGI in [6] was > 100 µM.
As for `COc1ccc(-n2cnc3c(NC(CCSC)C(=O)O)ncnc32)cc1` (stereo not given), the TGI in assay [7], in assay [9], in assay [1], in assay [2], in [3] and in assay [4] was > 100 µM in each case. Besides, the TGI in [5] and in [6] was > 100 µM each time.
`CC(=O)OCC1OC(n2c(=O)[nH]c(=O)c3sccc32)C(Br)C1OC(C)=O` (stereo not given): the TGI in assay [7], in assay [8], in assay [1], in [2], in [3] and in assay [4] was > 100 µM throughout. Also, the TGI in assay [5] and in assay [6] was > 100 µM throughout.
Consider `O=C1NC(=S)N(c2ccccc2)C1=O`, for which the TGI in [8], in assay [9], in [1], in assay [2], in assay [3] and in [4] was > 100 µM in each case. The TGI in assay [6] was > 100 µM.
In the case of `CC1OC(OC2C(OC(=O)[C@@H]3CC(C)(C)C[C@H]4C5=CC[C@@H]6[C@@]7(C)C[C@H](O)[C@H](OC8OC(CO)C(O)C(O)C8O)[C@@](C)(CO)[C@@H]7[C@H](O)C[C@@]6(C)[C@]5(C)CC[C@@]34C)OCC(O)C2O)C(O)C(O)C1O` (stereo not given in full), the TGI in assay [7], in assay [8], in assay [9], in assay [1], in assay [2] and in [4] was > 7.5 µM throughout. The TGI in assay [5] and in assay [6] was > 7.5 µM in each case.
For `O=C1C[C@@H](c2ccccc2)O[C@@H](c2ccccc2)C1`, the TGI in assay [7], in assay [9], in assay [1], in assay [2], in [4] and in assay [5] was > 100 µM each time. The TGI in assay [6] was > 100 µM.
`COc1cccc(NC(=O)C(C#N)=C(SC)SC)c1`: the TGI in assay [7], in assay [4], in assay [5] and in [6] was > 100 µM each time.
With `CC(C)(C)c1cc(C2COC(c3cc(C(C)(C)C)c(O)c(C(C)(C)C)c3)CO2)cc(C(C)(C)C)c1O` (stereo not given), the TGI in assay [7], in assay [9], in assay [1], in assay [2], in assay [4] and in [5] was > 100 µM each time. Also, the TGI in [6] was > 100 µM.
As to `CC(C)(C)OC(=O)NCCC1CN(C(=O)c2ccccc2)c2ccccc21` (stereo not given), the TGI is 48.4 µM in [7]; 95.5 µM in assay [9]; 88.8 µM in assay [1]; > 100 µM in [2]; > 100 µM in assay [3]; 66.5 µM in assay [5]. The TGI in assay [6] is > 100 µM.
For the compound `COc1cc([C@@H]2c3cc(O)c(OC)cc3C=C(C(N)=O)[C@H]2C(N)=O)ccc1O`, the TGI in [7], in [8], in [9], in assay [1], in assay [2] and in assay [3] was > 100 µM in each case. For the same compound, the TGI in assay [4] and in assay [6] was > 100 µM in each case.
Turning to `Cc1n[nH]c(=O)n1/N=C/c1ccc([N+](=O)[O-])o1`, the TGI is 40.6 µM in assay [9]; 32.4 µM in assay [1]; 22.3 µM in assay [2]; 14.4 µM in [4]; 36.6 µM in [5]; > 100 µM in assay [6].
Take `CCC[C@H](C)C[C@H](C)C[C@H](C)/C=C(\C)[C@@H](O)[C@@H](C)C(=O)CC`: the TGI in [8] was determined as 36.2 µM; in [9] it was 50.8 µM; in assay [1] it was 33.3 µM; in assay [2] it was 43.4 µM; in assay [4], 35.5 µM; in assay [5], 44.1 µM. In assay [6], this compound had a TGI of 36.1 µM.
